This is an account of results in patent publication EP3666770A1, “NOVEL HETEROCYCLIC COMPOUNDS AS CDK8/19 INHIBITORS” (Joint Stock Company "Biocad", priority 2017, dated 2019).

Data set [1] is described as follows: Enzyme stability in human liver microsomes. The class given is in vitro ADME. The following applies: pH 7.4; 0,5 mg/mL pooled human liver microsomes; 10 µM compound; 37°C; pH=7,4. As to the method: Measuring of candidates' enzyme stability enabled estimation of the stability of the present compounds towards the action of enzymes in liver microsomes.
Enzyme degradation rate was measured by incubating the reaction mixture in a dry block thermostat at 37°C, said reaction mixture comprising 0,5 mg/mL of pooled human liver microsomes (XenoTech, USA, cat#H2620), 10 µM compound, 2 mM β-nicotinamide adenine dinucleotide (Carbosynth, UK, cat#NN10871) and 4 mM magnesium chloride in 0,1 M sodium-phosphate buffer, pH=7,4. The reaction was quenched with acetonitrile (100 µL of acetonitrile / 100 µL of the reaction mixture). After quenching, the samples were centrifuged at 10000 rpm for 10 minutes. Supernatant fluid was tested by chromatographic technique using Agilent1200 (Agilent, USA). Chromatographic analysis was performed in a gradient elution regime with a flow rate of 1 mL/min. A graph of the logarithm of substance's peak area as a function of time was made. The dependent factor of the line corresponded to the elimination rate constant K based on which the drug's half-life t1/2 and degradation rate CLint were calculated: Elimination rate constant (k) = (−gradient) [formula] [formula] V(μL/mg) = (volume of incubation(μL))/(protein in the incubation(mg)) [formula] [formula]

Data set [2] in a line: General cytotoxicity test on HepG2 cells. The class given is cell-based. The following applies: human, HepG2 cells; 72 h incubation; 200 to 0.78 µM; average values of several tests; read-out: Hep-G2 CC50, mkM. Here is the method:
Cell viability was assessed using the above method. Table 6. […] The results are presented as average values of activity obtained in several tests.

The next data set deals with MV4-11. Briefly: Cell-based antiproliferative test (AlamarBlue), MV4-11. The following applies: Homo sapiens, MV4-11, 120 h, 120 h incubation; average values of several tests; read-out: MV-4-11 IC50, mkM. As to the method:
Antiproliferative activity of CDK8 inhibitors according to the present invention was measured in a cell-based test on continuous cell cultures MV4-11 (biphenotypic myelomonocytic leukemia, ATCC® CRL-9591™), KG-1 (acute myeloid leukemia, ATCC® CCL-246™), HL-60 (acute promyelocytic leukemia, ATCC® CCL-240™) using a vital stain AlamarBlue (ThermoFisher, #DAL1100). The cells were grown in RPMI-1640 (PanEco, #C330p) medium with addition of 10% FBS (Gibco, #16140-071); washed and resuspended in culture medium with 10% FBS (Gibco, #16140-071) in 96-well culture plates (Corning, #3599) with ≈ 10 ×10^3 cells in […] of medium per well. The compounds in question were dissolved in DMSO and diluted with a medium with 10% FBS (Gibco, #16140-071) to a final concentration ranging form 0 to 100 µM. […] of diluted compounds were then added to each well (final DMSO concentration was less than 1%) and incubated under 5% CO2 atmosphere at 37°C for 120 h. After incubating, 15 µL of AlamarBlue (ThermoFisher, #DAL1100) reagent was added per well, contents of plates were mixed in an orbital shaker (Biosan, Latvia) and further incubated for 3-5 h at 37°C under 5% CO2 atmosphere. Number of living cells was estimated using a microplate spectrophotometer (Tecan Infinite M200Pro, Switzerland) measuring fluorescent signal at the excitation wavelength (λEx) of 540 nm and emission wavelength (λEm) of 590 nm.
IC50 was calculated using Magellan 7.2 software (Tecan, Switzerland) approximating experimental points by four-parameter logistic model with the optimization by Levenberg-Marquardt (table 7, table 7).

Data set [3] can be described thus: Permeability through Caco-2 cell monolayer. The class given is in vitro ADME. The following applies: human, Caco-2; for Papp A→B at 2 h, 10 µM: A->B transfer, pH 6.5 -> pH 7.4, 2 hours at 37 °C; for efflux ratio at 2 h, 10 µM: efflux = Papp B-A / Papp A-B. Here is the method: Estimation of permeability through Caco-2 cell monolayer enables assessment of the ability of the substances to penetrate through biological membranes by means of both active and passive transport.
Intestinal epithelial cells Caco-2 were grown on filter inserts (pore size 0.4 µm, BD Falcon with High Density) for 21 days; monolayer integrity was then checked using Lucifer Yellow (Sigma-Aldrich, USA) according to the standard protocol. In A->B transfer ("intestinal lumen" - "blood stream" transfer), solutions of the test substances in buffer, pH 6.5 (HBSS, 10 mM HEPES, 15 mM glucose) at a concentration of 10 µM were added to the upper chamber; whereas the lower chamber was filled with buffer, pH 7.4 (HBSS, 10 mM HEPES, 15 mM Glucose, 1% BSA). In B->A transfer ("blood stream" - "intestinal lumen" transfer), the upper chamber was filled with buffer, pH 6.5, whereas the solutions of the test substances in buffer, pH 7.4, at a concentration of 10 µM were added to the lower chamber. A highly permeable substance propranolol was used as a control.
After 2 hours incubation at 37 ° C under an atmosphere containing 5% CO2, the amounts of the test substances in the upper and lower chambers were measured by HPLC using an Agilent1200 HPLC system (Agilent, USA), proteins were preliminarily precipitated with acetonitrile. Chromatographic analysis was performed in a gradient elution regime with a flow rate of 1 mL/min. The peak areas corresponding to the compounds were detected on chromatograms.
The value was calculated using the formula: efflux = Papp B−A /Papp A−B , [formula] where • Papp A-E - the value of permeability direct analysis A→ B; • Papp B-A - the value of the permeability of the reverse analysis B→ A.

Data set [4] in a line: Chemical stability in human blood plasma. The class given is in vitro ADME. The following applies: pooled human blood plasma; 10 µM; 4 hours at 37°C; substance amount in % after thermostatting. As to the method: (§1) Chemical stability of the compounds described herein was determined in simulated gastric fluid and human blood plasma.
(§2) Determination of stability in human blood plasma was performed using pooled human blood plasma taken from ten healthy donors. The initial candidate solution (10 mM in DMSO) was diluted with pooled blood plasma to a concentration of […] (test solution). The test solution was incubated in a dry block thermostat for 4 hours at 37°C. HPLC with Agilent 1200 liquid chromatography system (Agilent, USA) was employed to determine peak areas of the compounds in test samples, said peak areas corresponding to the initial test time (prior to incubation) and the final test time (after incubation in a dry block thermostat for 4 hours at 37°C), proteins were preliminarily precipitated with acetonitrile. Chromatographic analysis was performed in a gradient elution regime with a flow rate of 1 mL/min. Substance amount in % in a sample after thermostatting was determined.

The nature of data set [5]: Chemical stability in simulated gastric fluid (SGF). The class given is physicochemical. The following applies: SGF without enzymes, pH=1,4; 10 µm; 2 hours at 37°C; substance amount in % after thermostatting. Here is the method:
as §1
as §2, with “SGF concentrate without enzymes, pH=1,4 (Sigma Ireland, cat#01651)” for “Determination of stability in human blood plasma”, “used as simulated gastric fluid. Initial” for “performed using pooled human blood plasma taken from ten healthy donors. The initial”, “an SGF working solution” for “pooled blood plasma”, “2” for “4”, “37°C).” for “37°C), proteins were preliminarily precipitated with acetonitrile.”

Each structure is given as a SMILES string. Where only a bound is given, the exact number is not on record here.

For the compound `O=C(C1CN(c2cc(F)c3ncn(-c4ccc(-c5cn[nH]c5)cc4)c3c2)C1)N1CCOCC1` [CDK8-1-8, (1-(1-(4-(1H-Pyrazol-4-yl)phenyl)-4-fluoro-1H-benzo[d]imidazol-6-yl)azetidin-3-yl)(morpholino)methanone], in data set [1], the microsomal CLint at 10 µM is 23.4 µL/min/mg. Besides, the CC50 at 72 h in data set [2] is over 200 µM. Further, the IC50 with MV4-11 was found to be 3.92 µM. For the same compound, in data set [3], the Papp A→B at 2 h, 10 µM was found to be 19.7 ×10⁻⁶ cm/s and the efflux ratio at 2 h, 10 µM was found to be 2.9. For the same compound, in data set [4], the “Stability in blood plasma, %” value is 97.8%. In data set [5], the “Stability in SGF, %” value is on record as 100%.
On to `CN(C)c1ccc(-c2cnc3[nH]cc(C(=O)c4cccnc4)c3c2)cc1O` [CDK8-4-5], for which the microsomal CLint at 10 µM in data set [1] amounted to 26.6 µL/min/mg. Further, the CC50 at 72 h in data set [2] was determined as 7.7 µM. Also, the IC50 with MV4-11 worked out at 0.62 µM. In addition, in data set [3], the Papp A→B at 2 h, 10 µM is 87.6 ×10⁻⁶ cm/s and the efflux ratio at 2 h, 10 µM was 0.12. The “Stability in blood plasma, %” value in data set [4] was determined as 100%. Further, the “Stability in SGF, %” value in data set [5] is reported as 99.2%.
Take `O=C(c1cccnc1)c1c[nH]c2ncc(-c3ccc(N4CCOCC4)c(O)c3)cc12` [CDK8-4-7, (5-(3-Hydroxy-4-morpholinophenyl)-1H-pyrrolo[2,3-b]pyridin-3-yl) (pyridin-3-yl) methanone]: the microsomal CLint at 10 µM in data set [1] was 23.2 µL/min/mg. In addition, in data set [2], the CC50 at 72 h was over 200 µM. The IC50 in the data set with MV4-11 turned out to be 0.39 µM. In data set [3], the Papp A→B at 2 h, 10 µM is 64.5 ×10⁻⁶ cm/s and the efflux ratio at 2 h, 10 µM is 0.34. The “Stability in blood plasma, %” value in data set [4] is reported as 93.8%. Also, the “Stability in SGF, %” value in data set [5] is 99.1%.
Consider `O=C(c1ccncc1)c1c[nH]c2ncc(-c3ccc(N4CCOCC4)c(O)c3)cc12` [CDK8-4-11, (5-(3-Hydroxy-4-morpholinophenyl)-1H-pyrrolo[2,3-b]pyridin-3-yl) (pyridin-4-yl) methanone], for which, in data set [1], the microsomal CLint at 10 µM stood at 15 µL/min/mg. Moreover, the half-maximal cytotoxic concentration (CC50) at 72 h in data set [2] was over 200 µM. For the same compound, in the data set with MV4-11, the concentration for half-maximal inhibition (IC50) was determined as 1.33 µM. In data set [3], the Papp A→B at 2 h, 10 µM is 13.9 ×10⁻⁶ cm/s and the efflux ratio at 2 h, 10 µM is 1.54. Also, the “Stability in blood plasma, %” value in data set [4] is recorded as 88.5%. Further, the “Stability in SGF, %” value in data set [5] is listed as 98.1%.
In turn, `COc1cc(-c2cnc3[nH]cc(C(=O)c4ccccn4)c3c2)ccc1N1CCOCC1` [CDK8-4-23, (5-(3-Methoxy-4-morpholinophenyl)-1H-pyrrolo[2,3-b]pyridin-3-yl) (pyridin-2-yl) methanone] showed a microsomal CLint at 10 µM in data set [1] of 12.8 µL/min/mg. For the same compound, the CC50 at 72 h in data set [2] is over 100 µM. Also, in the data set with MV4-11, the IC50 was 0.1 µM. In addition, in data set [3], the Papp A→B at 2 h, 10 µM amounted to 36.9 ×10⁻⁶ cm/s and the efflux ratio at 2 h, 10 µM stood at 0.14. The “Stability in blood plasma, %” value in data set [4] stood at 87.4%. In data set [5], the “Stability in SGF, %” value was 100%.
In turn, `COc1cc(-c2cnc3[nH]cc(C(=O)c4cccnc4)c3c2)ccc1N(C)C` [CDK8-4-25, (5-(4-(Dimethylamino)-3-methoxyphenyl)-1H-pyrrolo[2,3-b]pyridin-3-yl)(pyridin-3-yl)methanone] gave a microsomal CLint at 10 µM in data set [1] of 22.2 µL/min/mg. In addition, the CC50 at 72 h in data set [2] was 4.7 µM. For the same compound, in the data set with MV4-11, the IC50 was found to be 0.05 µM. The “Stability in blood plasma, %” value in data set [4] was 100%. For the same compound, the “Stability in SGF, %” value in data set [5] was 100%.
For the compound `CN(C)c1ccc(-c2cnc3[nH]cc(C(=O)c4cccnc4)c3c2)c(C#N)c1` [CDK8-4-26, 5-(Dimethylamino)-2-(3-nicotinoyl-1H-pyrrolo[2,3-b]pyridin-5-yl)benzonitrile], in data set [1], the microsomal CLint at 10 µM was determined as 17.6 µL/min/mg. Further, the CC50 at 72 h in data set [2] is over 100 µM. The half-maximal inhibitory concentration (IC50) in the data set with MV4-11 is 1.28 µM. Moreover, the “Stability in blood plasma, %” value in data set [4] is given as 100%. In addition, the “Stability in SGF, %” value in data set [5] is recorded as 100%.
In the case of `O=C(c1ccnc2ccc(-c3ccc(-c4cn[nH]c4)cc3)cc12)N1CCCCC1` [CDK8-5-4, (6-(4-(1H-Pyrazol-4-yl)phenyl)quinolin-4-yl) (piperidin-1-yl)methanone], the microsomal CLint at 10 µM in data set [1] stood at 37 µL/min/mg. Further, the CC50 at 72 h in data set [2] worked out at 66.1 µM. For the same compound, the IC50 in the data set with MV4-11 came to 9.56 µM. For the same compound, the “Stability in blood plasma, %” value in data set [4] stood at 100%. The “Stability in SGF, %” value in data set [5] is on record as 99.9%.
For `N=C(c1ccnc2ccc(-c3ccc(-c4cn[nH]c4)cc3)cc12)N1CCCCC1` [CDK8-5-4i, (6-(4-(1H-Pyrazol-4-yl)phenyl)quinolin-4-yl) (piperidin-1-yl)methanimine] the same measures were 19 µL/min/mg, over 100 µM, 4.32 µM, 100% and 98.8%.
For `COC1CN(C(=O)c2ccc3nccc(-c4ccc(-c5cn[nH]c5)cc4)c3c2)C1` [CDK8-6-4, (4-(4-(1H-Pyrazol-4-yl)phenyl)quinolin-6-yl)(3-methoxyazetidin-1-yl) methanone] the same measures were 16.2 µL/min/mg, 66.6 µM, 7.79 µM, 100% and 100%.
